{"source": "patent US10077455B2", "about": "“3HP tolerance” (TECHNICAL UNIVERSITY OF DENMARK, priority 2013, dated 2018)", "key": {"[1]": {"test_system": "C. jadinii", "experiment": "Effect of GSH addition on growth of yeast strains with 50 g/L 3HP", "assay_type": "cell-based, Cyberlindnera jadinii", "quoted_text": "(§2) The yeast strains were grown in 3 mL Delft medium (pH 6.0) at 250 rpm, 25° C., overnight. Three μL of the overnight cultures were used to inoculate 100 μL Delft medium (pH 6.0) with or without 50 g/[MUT] in 96-well flat bottom plate. The 96-well plate was incubated with shaking in the SynergyTM MX microplate reader (BioTek) at 25° C. and the absorbance was measured at 600 nm wavelength every 15 min for 72 hours. Experiments were done in triplicates, and the specific growth rate (h^-1) was calculated. The effect of GSH addition was performed by adding 5 mM GSH into the cultivation medium containing 50 g/[MUT]. The growth of each strain was determined as mentioned above."}, "[2]": {"test_system": "S. cerevisiae strains ST609, ST610, ST611", "experiment": "3HP tolerance of SFA1 allele replacement strains", "assay_type": "cell-based, Saccharomyces cerevisiae", "conditions": "Delft buffered pH 3.5", "description": "For testing 3HP tolerance phenotype, two single colonies from each strain: ST609 (SFA1-wt), ST610 (SFA1^G827C) and ST611 (SFA1^G849A) were investigated for the ability to grow on media containing 3HP. […] The plate was incubated at 30° C. with 250 rpm agitation at 5 cm orbit cast overnight. […] Experiments were done in duplicates."}, "[3]": {"test_system": "T. delbrueckii", "experiment": "Effect of GSH addition on growth of yeast strains with 50 g/L 3HP", "assay_type": "cell-based, Torulaspora delbrueckii", "quoted_text": "as §2"}, "[4]": {"test_system": "Rhodotorula minuta", "experiment": "Effect of GSH addition on growth of yeast strains with 50 g/L 3HP", "assay_type": "cell-based", "quoted_text": "as §2"}, "[5]": {"test_system": "K. marxianus", "experiment": "Effect of GSH addition on growth of yeast strains with 50 g/L 3HP", "assay_type": "cell-based, Kluyveromyces marxianus", "quoted_text": "as §2"}, "[6]": {"test_system": "Y. lipolytica", "experiment": "Effect of GSH addition on growth of yeast strains with 50 g/L 3HP", "assay_type": "cell-based, Yarrowia lipolytica", "quoted_text": "as §2"}, "[7]": {"test_system": "S. pombe", "experiment": "Effect of GSH addition on growth of yeast strains with 50 g/L 3HP", "assay_type": "cell-based, Schizosaccharomyces pombe", "quoted_text": "as §2"}, "[8]": {"test_system": "E. coli strains W3110, CROOKS, W, BL21 (DE3), MG1655", "experiment": "Effect of GSH addition on growth of E. coli strains in M9 with 20 g/L 3HP", "assay_type": "cell-based", "conditions": "for effect of GSH addition on viability: M9 minimal medium with 20 g/L 3HP, pH 7.0, 37° C.", "description": "For E. coli, the effect of GSH addition on the growth of E. coli in the presence of 20 g/L 3HP was investigated. Five platform E. coli wild-type strains e.g. W3110, CROOKS, W, BL21 (DE3) and MG1655 were selected for 3HP tolerance experiment. Single colony from each strain was inoculated into 3 mL M9 medium and incubated at 250 rpm, 37° C., overnight. Two μL of the overnight cultures were used to inoculate 150 μL M9 medium, M9 with 20 g/L 3HP, and M9 with 20 g/L 3HP and 5 mM GSH in 96-well flat bottom plate. The pH of all E. coli tested media was at pH 7.0.\nThe composition of M9 medium was as follows: 2.0 g/L glucose, 6.8 g/L Na HPO4, 3.0 g/L KH2PO4, 0.5 g/L NaCl, 1.0 g/L NH4Cl, 0.24 g/L MgSO4, 0.011 g/L CaCl2, 0.5 mL/L trace elements solution, and 1.0 mL/L Wolfe's Vitamin solution. The trace elements solution included 1.0 g/L FeCl3.6H2O, 0.18 g/L ZnSo4.7H2O, 0.12 g/L CuCl2.2H2O, 0.12 g/L MnSO4.H2O, and 0.18 g/L CoCl2.6H2O. The Wolfe's vitamin solution included 10 mg/L pyridoxine hydrochloride, 5.0 mg/L thiamine HCl, 5.0 mg/L riboflavin, 5.0 mg/L nicotinic acid, 5.0 mg/L calcium-(+) phantothenate, 5.0 mg/L para-amino benzoic acid, 5.0 mg/L thiotic acid, 2.0 mg/L d-biotin, 2.0 mg/L folic acid, and 0.1 mg/L vitamin B12. The trace elements and vitamin solutions were sterile-filtered and the solution was stored at 4° C. The M9 salt solution was prepared as a 10× concentrate solution and sterilized by autoclaving. 20% Glucose solution, 1M MgSO4, and 1M CaCl2 stock solutions were autoclaved separately."}, "[9]": {"test_system": "S. cerevisiae CEN.PK 113-7D strain (WT)", "experiment": "Toxicity of 3HP on growth of S. cerevisiae in Delft minimal medium", "assay_type": "cell-based, Saccharomyces cerevisiae", "conditions": "Delft buffered medium pH 3.5, 30° C., 42 hours", "description": "The toxicity of 3HP on growth of S. cerevisiae CEN.PK 113-7D strain (WT) was determined by evaluating the ability of the WT strain to grow on a chemically defined minimal medium (Delft) containing varying concentrations of 3HP (0-100 g/L). The composition of Delft medium was as follows: 20.0 g/L glucose, 5.0 g/L (NH4)2SO4, 3.0 g/L KH2PO4, 0.5 g/L MgSO4.7H2O, 1.0 mL/L trace metal solution, 0.05 g/L antifoam A (10794, Sigma-Aldrich), and 1.0 mL/L vitamin solution. The trace element solution included 15 g/L EDTA, 0.45 g/L CaCl2.2H2O, 0.45 g/L ZnSO4.7H2O, 0.3 g/L FeSO4.7H2O, 100 mg/L […], 1 g/L MnCl2.2H2O, 0.3 g/L CoCl2.6H2O, 0.3 g/L CuSO4.5H2O, 0.4 g/L NaMoO4.2H2O. The pH of the trace metal solution was adjusted to 4.0 with 2 M NaOH and heat sterilized. […]\nA single colony from YPD plate (10 g/L yeast extract, 20 g/L peptone, 20 g/L glucose and 20 g/L agar) was inoculated in a shake flask with 20 mL YPD broth and grown at 30° C., with shaking at 200 rpm, overnight. The absorbance (OD600) of the overnight culture was measured at 600 nm wave length using NanoPhotometer™ UV/Vis (Implen) and the culture was diluted with YPD medium to obtain inoculum with the OD600 around 0.8. […] Experiments were done in duplicates, and the specific growth rate (h^−1) was calculated at various concentrations of 3HP."}, "[10]": {"test_system": "S. kluyveri", "conditions": "5 mM GSH, 50 g/L 3HP, Delft medium pH 6.0, 25° C.", "description": "(§1) The yeast strains were grown in 3 mL Delft medium (pH 6.0) at 250 rpm, 25° C., overnight. Three μL of the overnight cultures were used to inoculate 100 μL Delft medium (pH 6.0) with or without 50 g/[…] in 96-well flat bottom plate. The 96-well plate was incubated with shaking in the SynergyTM MX microplate reader (BioTek) at 25° C. and the absorbance was measured at 600 nm wavelength every 15 min for 72 hours. Experiments were done in triplicates, and the specific growth rate (h^-1) was calculated. The effect of GSH addition was performed by adding 5 mM GSH into the cultivation medium containing 50 g/[…]. The growth of each strain was determined as mentioned above."}, "[11]": {"test_system": "K. lactis", "conditions": "5 mM GSH, 50 g/L 3HP, Delft medium pH 6.0, 25° C.", "description": "as §1"}, "[12]": {"test_system": "S. cerevisiae", "conditions": "5 mM GSH, 50 g/L 3HP, Delft medium pH 6.0, 25° C.", "description": "as §1"}, "[13]": {"test_system": "S. cerevisiae WT, SFA1-alleles and sfa1Δ strains", "description": "The role of GSH in 3HP detoxification was investigated. The WT, SFA1-allles, and sfa1Δ strains were grown in the minimal medium with or without 50 g/L 3HP and supplemented with various concentration of external GSH (0-30 mM) and tested for 3HP tolerance.\nFor testing 3HP tolerance phenotype, the pre-cultures were prepared by inoculation of a single colony in 1 mL Delft buffered (pH 3.5) media containing 10 g/L 3HP. The cultures were incubated at 30° C. with 250 rpm overnight. Five μL of the overnight cultures were used to inoculate 100 μL Delft buffered (pH 3.5) with or without 50 g/L 3HP and various concentration of GSH (0, 1, 2.5, 5, 10, and 20 mM) in 96-well flat bottom plate. The 96-well plate was incubated at 30° C. with shaking in the Synergy™ MX microplate reader (BioTek) and the absorbance was measured at 600 nm wavelength every 15 min for 42 hours. Experiments were done in triplicates."}, "[14]": {"test_system": "haploid wild-type cells", "conditions": "cited from earlier work"}, "[15]": {"conditions": "5 mM GSH, 50 g/L 3HP, Delft medium pH 6.0"}}}
{"compound": "O=C(O)CCO", "note": "[3HP, 3-hydroxypropionic acid]", "values": [{"measurement": "3HP concentration tolerated (with decreased specific growth rate)", "setting": "[1]; Delft medium pH 6.0, 25° C.", "result": "more than 50 g/L"}, {"measurement": "3HP concentration in minimum media at which the strain could not grow", "setting": "[2]; ST609 (SFA1-wt allele without over expression)", "result": "above 40 g/L"}, {"measurement": "3HP concentration in minimum media at which the strain could grow", "setting": "[2]; ST610 (SFA1^G827C)", "result": "above 40 g/L"}, {"measurement": "3HP concentration in minimum media at which the strain could grow", "setting": "[2]; ST611 (SFA1^G849A)", "result": "above 40 g/L"}, {"measurement": "3HP concentration tolerated (with decreased specific growth rate)", "setting": "[3]; Delft medium pH 6.0, 25° C.", "result": "more than 50 g/L"}, {"measurement": "3HP concentration tolerated (with decreased specific growth rate)", "setting": "[4]; Delft medium pH 6.0, 25° C.", "result": "more than 50 g/L"}, {"measurement": "3HP concentration tolerated (with decreased specific growth rate)", "setting": "[5]; Delft medium pH 6.0, 25° C.", "result": "more than 50 g/L"}, {"measurement": "3HP concentration tolerated (with decreased specific growth rate)", "setting": "[6]; Delft medium pH 6.0, 25° C.", "result": "more than 50 g/L"}, {"measurement": "3HP concentration tolerated (with decreased specific growth rate)", "setting": "[7]; Delft medium pH 6.0, 25° C.", "result": "more than 50 g/L"}, {"measurement": "decrease in the specific growth rate compared to the cells grown in M9 medium", "setting": "[8]; strain MG1655, M9 medium containing 20 g/L 3HP", "result": 2.2, "unit": "fold"}, {"measurement": "concentration of 3-HP at which the wild type yeast is unable to grow at all", "setting": "[9]", "result": 75, "unit": "g/L"}, {"measurement": "concentration of 3-HP producing a substantial level of inhibition of growth", "setting": "[9]", "result": "above 10 g/L"}]}
{"compound": "N[C@@H](CCC(=O)N[C@@H](CS)C(=O)NCC(=O)O)C(=O)O", "note": "[GSH, glutathione]", "values": [{"measurement": "effect of GSH addition on specific growth rate", "setting": "[1]; [15]", "result": "improved"}, {"measurement": "effect of GSH addition on specific growth rate", "setting": "[3]; [15]", "result": "improved"}, {"measurement": "effect of GSH addition on specific growth rate", "setting": "[4]; [15]", "result": "improved"}, {"measurement": "effect of GSH addition on specific growth rate", "setting": "[5]; [15]", "result": "improved"}, {"measurement": "effect of GSH addition on viability", "setting": "[10]", "result": "restored the viability"}, {"measurement": "effect of GSH addition on viability", "setting": "[11]", "result": "restored the viability"}, {"measurement": "effect of GSH addition on viability", "setting": "[12]", "result": "restored the viability"}, {"measurement": "GSH concentration that restored growth in the presence of 50 g/L 3HP", "setting": "[13]; WT S. cerevisiae, 50 g/L 3HP, Delft buffered pH 3.5", "result": "≥ 2.5", "unit": "mM"}, {"measurement": "effect of GSH on growth", "setting": "[13]; all strains, minimal medium without 50 g/L 3HP", "result": "no significant effect"}, {"measurement": "effect of GSH addition on growth", "setting": "[13]; sfa1Δ strain, 50 g/L 3HP", "result": "could not be restored"}, {"measurement": "effect of GSH addition on growth rate", "setting": "[13]; strain carrying the SFA1 alleles, 50 g/L 3HP", "result": "improved the growth rate"}, {"measurement": "effect of GSH addition on specific growth rate", "setting": "[6]; [15]", "result": "improved"}, {"measurement": "effect of GSH addition on specific growth rate", "setting": "[7]; [15]", "result": "improved"}, {"measurement": "effect of GSH addition on viability", "setting": "[8]; strain BL21, 5 mM GSH", "result": "restored the viability"}, {"measurement": "effect of GSH addition on viability", "setting": "[8]; strain CROOKS, 5 mM GSH", "result": "restored the viability"}, {"measurement": "effect of GSH addition on specific growth rate", "setting": "[8]; strain MG1655, 5 mM GSH, medium containing 20 g/L 3HP", "result": "improved"}, {"measurement": "effect of GSH addition on viability", "setting": "[8]; strain W3110, 5 mM GSH", "result": "restored the viability"}, {"measurement": "effect of GSH addition on viability", "setting": "[8]; strain W, 5 mM GSH", "result": "restored the viability"}]}
{"compound": "C=O", "note": "[formaldehyde]", "values": [{"measurement": "concentration that is cytostatic or cytotoxic", "setting": "[14]", "result": "≥ 1000", "unit": "µM"}]}
